Test results published in paper PMC3914206.

Assays:
panel of 442 kinases [1] = target: T1, panel of 442 kinases (Homo sapiens, UniProt P24723); format: binding; conditions: Compound Concentration 10 µM
T1 construct: purchased KINOMEscan
Description: (§1) We assessed the selectivity of members of this scaffold using the KINOMEscan methodology across a near comprehensive panel of 442 kinases [[18,27]].

panel of 442 kinases [2] = target: T2, panel of 442 kinases (Homo sapiens, UniProt P31152); format: binding; conditions: Compound Concentration 10 µM
T2 construct: purchased KINOMEscan
Description: as §1

[3] = target: T3, selected panels of kinases in HeLa and PC3 cell lysates (Homo sapiens, UniProt O15111); experiment: KiNativ chemical proteomics profiling in HeLa and PC3 cell lysates; format: binding; conditions: 10 uM; proteome HEL; peptide DLk[…]; labeling site Lys2
T3 construct: endogenous in cells; host or cells: HeLa and PC3 cell lysates

[4] = target: T4, selected panels of kinases in HeLa and PC3 cell lysates (Homo sapiens, UniProt P10398); experiment: as above; format: binding; conditions: 10 uM; proteome HEL; peptide DLk[…]; labeling site Lys2
T4 construct: endogenous in cells; host or cells: HeLa and PC3 cell lysates

[5] = target: T5, selected panels of kinases in HeLa and PC3 cell lysates (Homo sapiens, UniProt P50750); experiment: as above; format: binding; conditions: 10 uM; proteome PC3; peptide DMkAANVLITR; labeling site Lys2
T5 construct: endogenous in cells; host or cells: HeLa and PC3 cell lysates

[6] = target: T6, selected panels of kinases in HeLa and PC3 cell lysates (Homo sapiens, UniProt P51812); experiment: as above; format: binding; conditions: 10 uM; for % Inhibition RSK2 domain1: peptide LTDFGLSkESIDHEKK, labeling site Activation Loop
T6 construct: endogenous in cells; host or cells: HeLa and PC3 cell lysates

[7] = target: T7, selected panels of kinases in HeLa and PC3 cell lysates (Homo sapiens, UniProt P54760); experiment: as above; format: binding; conditions: 10 uM; proteome PC3; peptide […]kIPIR; labeling site Activation Loop
T7 construct: endogenous in cells; host or cells: HeLa and PC3 cell lysates

[8] = target: T8, selected panels of kinases in HeLa and PC3 cell lysates (Homo sapiens, UniProt Q12851); experiment: as above; format: binding; conditions: 10 uM; proteome HEL; peptide […]kIVK; labeling site Lys1
T8 construct: endogenous in cells; host or cells: HeLa and PC3 cell lysates

[9] = target: T9, selected panels of kinases in HeLa and PC3 cell lysates (Homo sapiens, UniProt Q14012); experiment: as above; format: binding; conditions: 10 uM; proteome HEL; peptide LVAIkCIAK; labeling site Lys1
T9 construct: endogenous in cells; host or cells: HeLa and PC3 cell lysates

[10] = target: T10, selected panels of kinases in HeLa and PC3 cell lysates (Homo sapiens, UniProt Q7KZI7); experiment: as above; format: binding; conditions: 10 uM; proteome PC3; peptide EVAVk[…]; labeling site Lys1
T10 construct: endogenous in cells; host or cells: HeLa and PC3 cell lysates

[11] = target: T11, selected panels of kinases in HeLa and PC3 cell lysates (Homo sapiens, UniProt Q96GD4); experiment: as above; format: binding; conditions: 10 uM; proteome HEL; peptide SHFIVALkVLFK; labeling site Lys1
T11 construct: endogenous in cells; host or cells: HeLa and PC3 cell lysates

[12] = target: T12, selected panels of kinases in HeLa and PC3 cell lysates (Homo sapiens, UniProt Q9H2G2); experiment: as above; format: binding; conditions: 10 uM, SLK
T12 construct: endogenous in cells; host or cells: HeLa and PC3 cell lysates

[13] = target: T13, selected panels of kinases in HeLa and PC3 cell lysates (Homo sapiens, UniProt Q9Y572); experiment: as above; format: binding; conditions: 10 uM; RIPK3; peptide DLk[…]; proteome HEL; labeling site Lys2
T13 construct: endogenous in cells; host or cells: HeLa and PC3 cell lysates

ERK5 = ERK5 (Homo sapiens, UniProt Q13164); experiment: ERK5 autophosphorylation assay (EGF-stimulated, mobility shift immunoblot); format: cell-based; parameters: endogenous in cells; host or cells: HeLa; conditions: inhibition of EGF-stimulated autophosphorylation of ERK5 in HeLa cells; read-out: Cellular EC50 (ERK5)
Description: Proteins from total cell lysates were resolved by 6% sodium dodecyl sulfate (SDS)-poly-acrylamide gel electrophoresis (PAGE), transferred to nitrocellulose membrane, blocked in 5% nonfat milk, and blotted with anti-ERK5 antibody.

[14] = peptide DLk[…], proteome PC3, labeling site Lys2
[15] = peptide Sk[…], proteome HEL, labeling site Protein Kinase Domain
[16] = peptide Sk[…], proteome PC3, labeling site Protein Kinase Domain
[17] = peptide DLk[…], proteome HEL, labeling site Lys2
[18] = peptide ETSVLAAAkVIDTK, proteome PC3, labeling site Lys1

T2 sequence (P31152 whole entry): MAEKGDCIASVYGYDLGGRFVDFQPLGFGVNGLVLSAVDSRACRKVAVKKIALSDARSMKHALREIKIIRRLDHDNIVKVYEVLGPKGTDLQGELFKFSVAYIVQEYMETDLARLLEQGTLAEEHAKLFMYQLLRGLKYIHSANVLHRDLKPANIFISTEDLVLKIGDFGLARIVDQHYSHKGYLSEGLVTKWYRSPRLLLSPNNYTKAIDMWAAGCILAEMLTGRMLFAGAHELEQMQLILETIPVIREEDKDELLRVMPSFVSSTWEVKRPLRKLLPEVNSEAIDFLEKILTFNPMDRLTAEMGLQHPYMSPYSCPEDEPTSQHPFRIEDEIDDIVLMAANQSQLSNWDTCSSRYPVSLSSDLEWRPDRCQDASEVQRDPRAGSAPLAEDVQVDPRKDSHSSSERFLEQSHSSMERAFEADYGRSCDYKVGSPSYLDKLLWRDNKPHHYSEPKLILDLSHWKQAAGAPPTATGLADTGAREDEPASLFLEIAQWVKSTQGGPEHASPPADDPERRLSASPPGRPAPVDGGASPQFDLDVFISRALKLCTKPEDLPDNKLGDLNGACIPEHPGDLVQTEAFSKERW
T6 sequence (P51812 whole entry, the tested form may be a part): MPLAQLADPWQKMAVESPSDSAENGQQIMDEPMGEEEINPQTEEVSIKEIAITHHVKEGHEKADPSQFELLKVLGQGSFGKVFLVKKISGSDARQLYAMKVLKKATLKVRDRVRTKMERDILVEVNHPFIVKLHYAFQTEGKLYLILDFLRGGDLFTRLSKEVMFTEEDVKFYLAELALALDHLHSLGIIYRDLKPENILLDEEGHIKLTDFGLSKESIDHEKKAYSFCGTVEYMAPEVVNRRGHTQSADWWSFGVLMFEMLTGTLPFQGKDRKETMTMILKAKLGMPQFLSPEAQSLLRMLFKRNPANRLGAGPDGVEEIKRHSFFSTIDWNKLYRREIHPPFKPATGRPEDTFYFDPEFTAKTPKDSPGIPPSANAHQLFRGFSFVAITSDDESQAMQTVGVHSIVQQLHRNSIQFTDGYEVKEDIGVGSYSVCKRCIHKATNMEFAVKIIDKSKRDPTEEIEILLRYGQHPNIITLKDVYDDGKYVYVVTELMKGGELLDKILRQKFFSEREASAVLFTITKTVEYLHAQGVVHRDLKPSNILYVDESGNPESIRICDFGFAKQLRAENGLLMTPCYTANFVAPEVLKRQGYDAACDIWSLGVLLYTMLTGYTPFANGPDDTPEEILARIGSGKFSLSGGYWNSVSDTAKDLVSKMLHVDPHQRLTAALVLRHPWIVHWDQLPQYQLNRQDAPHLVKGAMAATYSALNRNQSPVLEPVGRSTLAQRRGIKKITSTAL
T12 sequence (Q9H2G2 whole entry): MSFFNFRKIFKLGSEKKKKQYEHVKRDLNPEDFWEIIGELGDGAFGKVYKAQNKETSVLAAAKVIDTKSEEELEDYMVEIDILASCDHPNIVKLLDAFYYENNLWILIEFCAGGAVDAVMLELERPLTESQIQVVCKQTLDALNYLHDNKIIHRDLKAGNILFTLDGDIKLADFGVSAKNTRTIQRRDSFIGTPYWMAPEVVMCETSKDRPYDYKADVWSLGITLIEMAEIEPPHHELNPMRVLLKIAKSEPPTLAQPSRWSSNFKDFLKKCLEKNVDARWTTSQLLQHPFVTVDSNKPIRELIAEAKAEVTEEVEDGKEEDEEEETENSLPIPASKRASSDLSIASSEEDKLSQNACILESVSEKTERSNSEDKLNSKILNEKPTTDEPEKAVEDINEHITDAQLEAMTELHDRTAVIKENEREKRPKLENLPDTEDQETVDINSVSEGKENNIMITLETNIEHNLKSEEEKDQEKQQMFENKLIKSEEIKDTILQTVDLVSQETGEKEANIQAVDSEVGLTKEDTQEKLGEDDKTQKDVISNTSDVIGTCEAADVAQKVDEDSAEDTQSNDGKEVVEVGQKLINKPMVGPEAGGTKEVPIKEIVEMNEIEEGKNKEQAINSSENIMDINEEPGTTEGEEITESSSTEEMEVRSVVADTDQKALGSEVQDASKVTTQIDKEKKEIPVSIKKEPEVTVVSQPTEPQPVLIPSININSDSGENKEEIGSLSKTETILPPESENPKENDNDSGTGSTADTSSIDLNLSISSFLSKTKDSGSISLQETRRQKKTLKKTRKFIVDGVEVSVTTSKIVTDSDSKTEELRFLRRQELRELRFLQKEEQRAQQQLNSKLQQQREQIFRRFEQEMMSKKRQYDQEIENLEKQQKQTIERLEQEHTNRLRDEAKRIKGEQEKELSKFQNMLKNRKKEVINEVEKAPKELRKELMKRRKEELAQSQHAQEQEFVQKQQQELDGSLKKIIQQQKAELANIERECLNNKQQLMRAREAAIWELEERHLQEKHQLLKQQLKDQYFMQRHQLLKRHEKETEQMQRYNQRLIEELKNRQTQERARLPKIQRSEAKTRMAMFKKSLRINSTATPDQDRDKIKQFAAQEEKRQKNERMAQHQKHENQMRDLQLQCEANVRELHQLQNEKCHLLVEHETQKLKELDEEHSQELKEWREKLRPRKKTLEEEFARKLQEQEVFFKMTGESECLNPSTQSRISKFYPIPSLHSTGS
T1 sequence (P24723 whole entry): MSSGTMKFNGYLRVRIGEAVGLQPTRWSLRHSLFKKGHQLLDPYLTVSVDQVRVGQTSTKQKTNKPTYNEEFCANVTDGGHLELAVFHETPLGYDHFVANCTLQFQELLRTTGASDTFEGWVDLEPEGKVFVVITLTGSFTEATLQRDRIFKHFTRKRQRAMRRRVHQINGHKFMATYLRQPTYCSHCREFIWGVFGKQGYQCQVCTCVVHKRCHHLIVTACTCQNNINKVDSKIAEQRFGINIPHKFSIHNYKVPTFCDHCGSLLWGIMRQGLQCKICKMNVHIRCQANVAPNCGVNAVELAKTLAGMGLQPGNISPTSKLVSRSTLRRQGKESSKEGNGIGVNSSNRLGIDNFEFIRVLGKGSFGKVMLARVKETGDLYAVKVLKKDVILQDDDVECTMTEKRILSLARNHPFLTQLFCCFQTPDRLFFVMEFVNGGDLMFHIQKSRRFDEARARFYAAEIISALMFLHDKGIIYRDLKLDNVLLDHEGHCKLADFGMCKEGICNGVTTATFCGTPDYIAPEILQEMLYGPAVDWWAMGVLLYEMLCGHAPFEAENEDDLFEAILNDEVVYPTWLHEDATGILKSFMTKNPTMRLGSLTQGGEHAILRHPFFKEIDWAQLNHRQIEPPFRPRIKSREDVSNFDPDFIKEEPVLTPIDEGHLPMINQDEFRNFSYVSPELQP
T4 sequence (P10398 whole entry): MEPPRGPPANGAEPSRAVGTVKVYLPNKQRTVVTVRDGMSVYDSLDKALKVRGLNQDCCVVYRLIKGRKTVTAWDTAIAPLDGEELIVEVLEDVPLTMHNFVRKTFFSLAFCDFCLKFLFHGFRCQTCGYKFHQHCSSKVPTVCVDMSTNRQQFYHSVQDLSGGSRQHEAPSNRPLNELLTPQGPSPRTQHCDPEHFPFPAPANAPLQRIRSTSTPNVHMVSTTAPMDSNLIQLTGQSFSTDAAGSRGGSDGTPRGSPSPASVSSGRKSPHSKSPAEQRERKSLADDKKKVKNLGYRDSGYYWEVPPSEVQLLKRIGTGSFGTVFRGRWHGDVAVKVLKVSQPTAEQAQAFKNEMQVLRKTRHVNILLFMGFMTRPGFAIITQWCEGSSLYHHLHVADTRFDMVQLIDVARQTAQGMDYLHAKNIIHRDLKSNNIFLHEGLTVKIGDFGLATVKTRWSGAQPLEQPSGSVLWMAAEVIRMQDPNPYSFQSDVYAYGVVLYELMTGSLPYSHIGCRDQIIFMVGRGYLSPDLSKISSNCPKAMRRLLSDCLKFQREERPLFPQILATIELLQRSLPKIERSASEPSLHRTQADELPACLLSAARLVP
T11 sequence (Q96GD4 whole entry): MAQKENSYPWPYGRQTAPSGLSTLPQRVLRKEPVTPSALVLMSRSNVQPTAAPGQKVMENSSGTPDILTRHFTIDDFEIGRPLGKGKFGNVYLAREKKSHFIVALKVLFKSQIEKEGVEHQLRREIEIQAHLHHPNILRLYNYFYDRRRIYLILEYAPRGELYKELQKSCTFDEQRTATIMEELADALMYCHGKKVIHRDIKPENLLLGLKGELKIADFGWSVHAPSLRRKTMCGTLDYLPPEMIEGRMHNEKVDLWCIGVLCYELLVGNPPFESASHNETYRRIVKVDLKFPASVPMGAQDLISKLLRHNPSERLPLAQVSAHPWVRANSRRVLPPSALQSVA
Chain of ERK5 (Q13164 whole entry): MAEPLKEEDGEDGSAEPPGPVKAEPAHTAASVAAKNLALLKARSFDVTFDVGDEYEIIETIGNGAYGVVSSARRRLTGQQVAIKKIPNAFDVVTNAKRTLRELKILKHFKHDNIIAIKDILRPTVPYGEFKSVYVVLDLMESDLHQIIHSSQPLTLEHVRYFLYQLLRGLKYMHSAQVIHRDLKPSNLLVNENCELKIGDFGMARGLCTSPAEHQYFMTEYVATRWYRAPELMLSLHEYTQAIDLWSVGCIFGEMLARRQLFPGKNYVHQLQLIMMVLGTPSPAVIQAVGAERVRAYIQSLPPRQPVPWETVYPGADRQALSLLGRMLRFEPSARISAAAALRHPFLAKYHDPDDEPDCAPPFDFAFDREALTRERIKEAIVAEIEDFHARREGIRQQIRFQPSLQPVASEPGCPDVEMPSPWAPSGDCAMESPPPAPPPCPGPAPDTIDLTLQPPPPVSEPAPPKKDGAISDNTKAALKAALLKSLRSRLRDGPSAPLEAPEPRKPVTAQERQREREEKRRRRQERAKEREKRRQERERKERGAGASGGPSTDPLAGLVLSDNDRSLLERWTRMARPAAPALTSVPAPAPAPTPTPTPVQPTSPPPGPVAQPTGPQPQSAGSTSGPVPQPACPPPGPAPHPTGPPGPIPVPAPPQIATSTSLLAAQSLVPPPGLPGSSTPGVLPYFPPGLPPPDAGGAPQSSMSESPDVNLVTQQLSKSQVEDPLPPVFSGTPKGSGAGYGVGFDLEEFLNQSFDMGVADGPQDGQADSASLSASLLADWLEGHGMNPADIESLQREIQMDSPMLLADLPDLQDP

Row | SMILES | KINOMEscan: PRKCH (panel of 442 kinases [1]) | KINOMEscan: ERK4 (panel of 442 kinases [2]) | % Inhibiton, IKKa [3] | % Inhibiton, ARAF [4] | % Inhibiton, CDK9 [5] | % Inhibition RSK2 domain1 ([6]; proteome HEL) | % Inhibition RSK2 domain2 [6, 14] | % Inhibition RSK2 domain2 [6, 15] | % Inhibition RSK2 domain2 [6, 16] | % Inhibiton, EphB4 [7] | % Inhibiton, GCK [8] | % Inhibiton, CaMK1a [9] | % Inhibiton, MARK2 [10] | % Inhibiton, AurB [11] | % Inhibition SLK [12, 17] | % Inhibition SLK [12, 14] | % Inhibition SLK [12, 18] | % Inhibition RIPK3 [13] | EC50 (ERK5)
1 | COc1cc(C(=O)N2CCC(N3CCN(C)CC3)CC2)ccc1Nc1ncc2c(n1)N(C1CCCC1)c1ccccc1C(=O)N2C [Compound 25, 11-cyclopentyl-2-((2-methoxy-4-(4-(4-methylpiperazin-1-yl)piperidine-1-carbonyl)phenyl)amino)-5-methyl-5H-benzo[e]pyrimido[5,4-b][1,4]diazepin-6(11H)-one] | 100 | 100 | 5.3% | -0.657% | 10.0% | 1.2% | -4.3% | 1.3% | 1.9% | -13.0% | -2.3% | 19.1% | 1.3% | 65.8% | 10.4% | -11.4% | -17.6% | -1.3% | 80 ± 20 nM
2 | CCOc1cc(C(=O)N2CCC(N3CCN(C)CC3)CC2)ccc1Nc1ncc2c(n1)N(C1CCCC1)c1ccccc1C(=O)N2C [Compound 26] | 100 | 100 | -5.9% | 2.9% | 0.7% | 7.2% | -0.5% | 7.4% | -14.6% | 17% | 6.8% | 36% | 16.8% | 42.5% | 25.7% | 2.9% | -35.8% | -2.4% | 
3 | COc1cc(C(=O)N2CCC(N3CCN(C)CC3)CC2)ccc1Nc1ncc2c(n1)N1CCc3cccc(c31)C(=O)N2C [Compound 24] | 84 |  |  |  |  |  |  |  |  |  |  |  |  |  |  |  |  |  | 260 ± 40 nM
4 | COc1cc(C(=O)N2CCC(N3CCN(C)CC3)CC2)ccc1Nc1ncc2c(n1)N(C)c1ccccc1C(=O)N2C [15 (LRRK2-IN-1)] | 100 | 100 |  |  |  |  |  |  |  |  |  |  |  |  |  |  |  |  | 
